Measurements from patent US4320051A, “Analgesic tripeptide amides” (American Home Products Corporation, priority 1980, dated 1982).
Values joined by “and” are separate entries in the source; they are usually repeats but may differ in a detail not shown here. Equal entries are not always repeated. Square brackets hold non-standard residues; d marks the D form. Ends that are not written are not given here.

Key:
[1] = test system: phenylbenzoquinone-induced writhing; assay: phenylbenzoquinone-induced writhing test; assay type: in vivo; settings: subcutaneous, mice
Protocol: Exp. Biol. Med., 95, 729-731 (1957), by establishing three groups of ten mice (Carworth farms) per group (18-27 g. body weight). The animals receive the compound being tested (Examples 9 and 15) subsubcutaneously. Five or 20 minutes later each animal received 0.25 milliliters of the writhing agonist (i.e. 0.02% solution of PBQ). The animals receiving the writhing agonist five minutes after the test compound are observed for a period of ten minutes beginning five minutes after the injection. The animals receiving the writhing agonist 20 minutes after the test compound are observed for ten minutes beginning five minutes after the injection. A compound is an analgesic if it inhibits writhing induced by phenyl benzoquinone.

[2] = test system: opiate receptor (3H-naloxone binding); assay: 3H-naloxone displacement (procedure of Chang et al.); design: 3H-naloxone displacement ED50: unit not given here
Excerpt: Enkephalin, a natural opiate receptor agonist in the brain, has been identified [see Hughes et al., Nature, 258,577 (1975)] as a mixture of two pentapeptides: H-Tyr-Gly-Gly-Phe-Met-OH (methionine-enkephalin) and H-Tyr-Gly-Gly-Phe-Leu-OH (leucine-enkephalin). […] It has been reported that methionine-enkephalin and leucine-enkephalin, when administered by injection in the brain ventricle in rats, induce a profound analgesia that is fully reversible by naloxone. [See Beluzzi et al., Nature, 260, 625 (1976)].

[3] = intravenous administration, relative to morphine; cited from earlier work

Compound	ED50 mg/kg. (confidence limits) ([1]; Time 15 minutes)	ED50 mg/kg. (confidence limits) ([1]; Time 30 minutes)	3H-naloxone displacement ED50 [2]	relative displacement potency ([2]; 3H-naloxone displacement, morphine=1)	times more potent than morphine [3] [times]
C[C@@H](NC(=O)[C@@H](N)Cc1ccc(O)cc1)C(=O)NCC(=O)NC(Cc1ccccc1)CN1CCN(C)CC1 (stereo partly drawn) [Example 9, L-Tyrosyl-D-alanyl-N-[1-[(4-methyl-1-piperazinyl)methyl]-2-phenyl-ethyl]glycinamide]	1.05 (0.62-1.79) mg/kg	4.60 (3.1-6.9) mg/kg and 6.20 (4.4-8.7) mg/kg	1.36×10^-7	1.3	
Y[dM]GFP-NH2					5.5
